In US8425918B2, “Use of EDTA and its derivatives for prevention and treatment of bacterial intestinal diseases of pigs and for increasing the effects of antibiotics exerted in such diseases” (Pharmatéka Gyártó´és Kereskedelmi BT, priority 2007, dated 2013):

Key:
[1] = tested on: Brachyspira infection; experiment: Example 5.1: prevention of bloody diarrhoea, EDTA Na2 salt in the fodder on an infected pig farm; type: in vivo, pigs; details: 240 ppm EDTA Na2 salt in fodder via premix of Example 1
Excerpt: (§1) Testing of Compositions Comprising EDTA on Pigs Suffering from Bloody Diarrhoea (Brachyspira Infection)
On a pig farm infected with the pathogen 3 test groups of 20 animals each and one control group of 20 animals were formed from 90 days old piglets. The fodder of the animals belonging to the test groups was complemented throughout the test period (which lasted to slaughtering) with 240 ppm of EDTA Na2 salt utilizing the premix as described in Example 1.

[2] = tested on: Brachyspira infection; experiment: Example 5.2: treatment of pigs suffering from bloody diarrhoea, EDTA Na2 in drinking water; type: in vivo
Protocol: as §1
Pigs suffering from bloody diarrhoea, husbanded on the farm according to Example 5.1, were treated with EDTA Na2 in such a way that 200 ppm of EDTA Na2 were dissolved in the drinking water of the animals. […] In the control group where on the day following the cease of diarrhoea the animals were returned to drinking of pure water bloody diarrhoea reappeared after 4 days.

[3] = tested on: Brachyspira infection; experiment: Example 5.3: lincomycin nourishment with or without EDTA Na2 salt, livestock with bloody diarrhoea partly resistant to lincomycin; type: in vivo, pigs
Excerpt: as §1
At a pig farm infected with the pathogen a nourishment comprising 110 ppm of lincomycin was fed with the livestock suffering from bloody diarrhoea. […] The livestock was separated proportionally, and in the test group 240 ppm of EDTA Na2 salt was admixed to the nourishment, utilizing the premix according to Example 1.

[4] = tested on: Brachyspira infection; experiment: Example 5.4: lincomycin-resistant animals, lincomycin therapy maintained plus EDTA Na2 in drinking water; type: in vivo, pigs
Protocol: as §1
In a part of the lincomycin-resistant animals belonging to the livestock according to Example 5.3, no treatment with another antibiotic was performed, but lincomycin therapy was maintained and simultaneously drinking water comprising 60 ppm of EDTA Na2 was added to the animals.

[5] = tested on: Brachyspira infection; experiment: Example 5.5: prevention in weaned piglets with complemented nourishment; type: in vivo, pigs; details: test group: nourishment with 240 ppm EDTA Na2, 22 ppm essential oils (1:1 oregano oil and thyme oil) and 100 ppm tannic acid
Excerpt: Testing of Compositions Comprising EDTA on Pigs Suffering from Bloody Diarrhoea (Brachyspira Infection) At a pig farm with frequently occurring bloody diarrhoea three groups were formed randomly from weaned piglets at switching to solid nourishment. In the first group (test group) the animals were fed continuously with a nourishment comprising 240 ppm of EDTA Na2, 22 ppm of essential oils (1:1 mixture of oregano oil and thyme oil) and 100 ppm of tannic acid. In the second group (control group 1) the animals were fed continuously with a nourishment comprising essential oils and tannic acid in the above amounts but free of EDTA Na2. In the third group (control group 2) no EDTA Na2, essential oils or tannic acid were added to the nourishment of the animals. After a certain period of time soft faeces and then bloody diarrhoea appeared in the animals of control group 2 (fed with a nourishment without completion). Bacteria of Brachospira type were detected in the faeces.

Structure (SMILES)	appearance of bloody diarrhoea ([1]; 90 days old piglets, until slaughtering)	need for antibiotic treatment ([1]; compared with the other animals of the farm)	cessation of bloody diarrhoea ([2]; 200 ppm EDTA Na2 dissolved in drinking water)	time to reappearance of bloody diarrhoea after withdrawal ([2]; animals returned to pure water on the day following the cease of diarrhoea)	reoccurrence of bloody diarrhoea ([2]; while 200 ppm EDTA Na2 was maintained in the drinking water)	cessation of bloody diarrhoea ([3]; 240 ppm EDTA Na2 salt (premix of Example 1) admixed to nourishment comprising 110 ppm lincomycin)	later occurrence of bloody diarrhoea ([3]; continued feeding with fodder comprising EDTA Na2 salt)	pathogenic bacteria in the faeces ([4]; 60 ppm EDTA Na2 in drinking water with lincomycin)	cessation of diarrhoea ([4]; 60 ppm EDTA Na2 in drinking water, lincomycin therapy maintained, lincomycin-resistant animals)	reoccurrence of diarrhoea ([4]; after terminating lincomycin, EDTA Na2 in drinking water continued)	abnormal biological symptoms (soft faeces, bloody diarrhoea) [5]	persistence of bloody diarrhoea ([3]; control group: nourishment comprising 110 ppm lincomycin without EDTA Na2 salt)
O=C([O-])CN(CCN(CC(=O)[O-])CC(=O)O)CC(=O)O.[Na+].[Na+] [EDTA Na2 salt]	No bloody diarrhoea appeared	no antibiotic treatment of the animals of the test groups was required	ceased on the third day	4 days	did not reoccur	completely ceased on the third day	no bloody diarrhoea occurred	No pathogenic bacteria could be detected	ceased completely within some days	did not reoccur	no abnormal biological symptom could be observed	
CCC[C@@H]1C[C@@H](C(=O)N[C@@H]([C@H]2O[C@H](SC)[C@H](O)[C@@H](O)[C@H]2O)[C@@H](C)O)N(C)C1 [lincomycin, reference compound]												bloody diarrhoea still persisted
